In article PMC12621569 (Antiviral research, 2025):
Like-named read-outs stand apart in the source and are kept apart here.

What was measured:
[1] = test system: influenza B virus infections; conditions: human, in vivo; cited from earlier work
[2] = test system: type A viruses; conditions: cited from earlier work
[3] = test system: A(H3N2) viruses; assay type: cell-based, influenza A(H3N2) virus; conditions: read-out: Median EC50
[4] = test system: B/Victoria viruses; assay type: cell-based, influenza B/Victoria lineage virus
[5] = test system: A(H1N1)pdm09 viruses; assay type: cell-based, influenza A(H1N1)pdm09 virus; conditions: read-out: Median EC50
[6] = target: A (H1N1)pdm09 neuraminidase (NA); assay type: biochemical, influenza A (H1N1)pdm09 virus; conditions: read-out: IC50 Median
[7] = target: B/Victoria neuraminidase (NA); assay type: biochemical, influenza B/Victoria lineage virus
[8] = target: A (H3N2) neuraminidase (NA) (Influenza A virus (H3N2), UniProt V9SU56); assay type: biochemical
[9] = test system: type B versus type A viruses; conditions: cited from earlier work

**Q.** Which results are given for O=C1c2c(O)c(=O)ccn2N([C@@H]2c3ccccc3SCc3c2ccc(F)c3F)[C@@H]2COCCN12 [Baloxavir, baloxavir]?
**A.** effectiveness in treatment [1]: more effective than oseltamivir; elevated baloxavir EC50 [2]: • Treatment-emergent • Rarely as natural polymorphisms • Confer elevated baloxavir EC50 (4–112-fold); EC50 [3]: 0.58 nM; median EC50 for B/Victoria viruses, fold higher than influenza A subtypes [4]: 5–7 fold; EC50 ([4]; read-out: Median EC50): 4.06 nM; EC50 [5]: 0.8 nM

**Q.** With CCC(CC)[C@H](NC(C)=O)[C@@H]1[C@H](O)[C@@H](C(=O)O)C[C@H]1N=C(N)N [Peramivir, peramivir] as the molecule, how does the IC50 [6] read?
**A.** 0.07 nM

**Q.** What about the IC50 ([7]; read-out: IC50 Mean ± SD) of the same molecule?
**A.** 0.35 ± 0.11 nM

**Q.** And the IC50 ([7]; read-out: IC50 Median)?
**A.** 0.33 nM

**Q.** And the IC50 ([7]; read-out: IC50 Range)?
**A.** 0.14 to 0.88 nM

**Q.** What about the IC50 ([8]; read-out: IC50 Mean ± SD) of the same molecule?
**A.** 0.09 ± 0.02 nM

**Q.** And the IC50 ([8]; read-out: IC50 Median)?
**A.** 0.08 nM

**Q.** What about the IC50 ([8]; read-out: IC50 Range) of the same molecule?
**A.** 0.05 to 0.25 nM

**Q.** With CCOC(=O)C1=C[C@@H](OC(CC)CC)[C@H](NC(C)=O)[C@@H](N)C1 [Oseltamivir, oseltamivir] as the molecule, how does the “clinical effects against influenza B compared to influenza A virus infections” value [1] read?
**A.** reduced effects

**Q.** And the “lower activity against type B versus type A viruses” value [9]?
**A.** 47- to 80 fold
